Legend:
[1] = test system: Hepatitis B virus; experiment: Antiviral activity against genotype D HBV infected in sodium taurocholate co-transporting polypeptide receptor-expressing stable HepG2 cell line assessed as suppression of HBsAg level incubated for 5 days by multiplex chemiluminescent MSD assay; assay type: functional, organism-based; conditions: HepG2, 120 h
[2] = Clearance in Sprague-Dawley rat at […], iv measured after 24 hrs by LC/MS/MS method; assay type: ADME, organism-based; conditions: in vivo
[3] = Oral bioavailability in Sprague-Dawley rat after 24 hrs by LC/MS/MS method; assay type: ADME, organism-based; conditions: in vivo
[4] = AUC (0 to infinity) Sprague-Dawley rat at 1 mg/kg, iv; assay type: ADME, organism-based; set-up: dose 1 mg/kg, route iv; conditions: in vivo
[5] = Clearance in Sprague-Dawley rat at 1 mg/kg, iv; assay type: ADME, organism-based; conditions: in vivo
[6] = Volume of distribution at steady state in Sprague-Dawley rat at 1 mg/kg, iv; assay type: ADME, organism-based; conditions: in vivo, read-out: Vdss
[7] = Half life in Sprague-Dawley rat at 1 mg/kg, iv; assay type: ADME, organism-based; conditions: in vivo
[8] = MRT in Sprague-Dawley rat at 1 mg/kg, iv; assay type: ADME, organism-based; conditions: in vivo
[9] = Oral bioavailability in Sprague-Dawley rat at 3 mg/kg; assay type: ADME, organism-based; conditions: in vivo
[10] = AUC (0 to infinity) Beagle dog at 0.5 mg/kg, iv; assay type: ADME, organism-based, Canis lupus familiaris; set-up: dose 0.5 mg/kg, route iv; conditions: in vivo
[11] = Clearance in Beagle dog at 0.5 mg/kg, iv; assay type: ADME, organism-based, Canis lupus familiaris; conditions: in vivo
[12] = Volume of distribution at steady state in Beagle dog at 0.5 mg/kg, iv; assay type: ADME, organism-based, Canis lupus familiaris; conditions: in vivo, read-out: Vdss
[13] = Half life in Beagle dog at 0.5 mg/kg, iv; assay type: ADME, organism-based, Canis lupus familiaris; conditions: in vivo
[14] = MRT in Beagle dog at 0.5 mg/kg, iv; assay type: ADME, organism-based, Canis lupus familiaris; conditions: in vivo
[15] = Oral bioavailability in Beagle dog at 0.5 mg/kg; assay type: ADME, organism-based, Canis lupus familiaris; conditions: in vivo
[16] = AUC (0 to infinity) Cynomolgus monkey at 0.4 mg/kg, iv; assay type: ADME, organism-based, Macaca fascicularis; set-up: dose 0.4 mg/kg, route iv; conditions: in vivo
[17] = Clearance in Cynomolgus monkey at 0.4 mg/kg, iv; assay type: ADME, organism-based, Macaca fascicularis; conditions: in vivo
[18] = Volume of distribution at steady state in Cynomolgus monkey at 0.4 mg/kg, iv; assay type: ADME, organism-based, Macaca fascicularis; conditions: in vivo, read-out: Vdss
[19] = Half life in Cynomolgus monkey at 0.4 mg/kg, iv; assay type: ADME, organism-based, Macaca fascicularis; conditions: in vivo
[20] = MRT in Cynomolgus monkey at 0.4 mg/kg, iv; assay type: ADME, organism-based, Macaca fascicularis; conditions: in vivo
[21] = Oral bioavailability in Cynomolgus monkey at 0.5 mg/kg; assay type: ADME, organism-based, Macaca fascicularis; conditions: in vivo
[22] = AUC (0 to infinity) Rhesus monkey at 0.5 mg/kg, iv; assay type: ADME, organism-based, Macaca mulatta; set-up: dose 0.5 mg/kg, route iv; conditions: in vivo
[23] = Clearance in Rhesus monkey at 0.5 mg/kg, iv; assay type: ADME, organism-based, Macaca mulatta; conditions: in vivo
[24] = Volume of distribution at steady state in Rhesus monkey at 0.5 mg/kg, iv; assay type: ADME, organism-based, Macaca mulatta; conditions: in vivo, read-out: Vdss
[25] = Half life in Rhesus monkey at 0.5 mg/kg, iv; assay type: ADME, organism-based, Macaca mulatta; conditions: in vivo

SMILES: COCCCOc1cc2c(cc1COC)-c1cc(=O)c(C(=O)O)cn1N1[C@@H]2CCC1(C)C
- EC50 [1]: 4 nM
- clearance [2]: 4.5 mL/min/kg
- bioavailability [3]: 91%
- AUC(0-inf) [4]: 8.44 µM·h
- clearance [5]: 4.5 mL/min/kg
- Vd [6]: 0.69 L/kg
- half-life [7]: 2.5 h
- MRT [8]: 2.6 h
- bioavailability [9]: 91%
- AUC(0-inf) [10]: 4.91 µM·h
- clearance [11]: 4 mL/min/kg
- Vd [12]: 0.85 L/kg
- half-life [13]: 5.1 h
- MRT [14]: 3.6 h
- bioavailability [15]: 94%
- AUC(0-inf) [16]: 5.93 µM·h
- clearance [17]: 2.5 mL/min/kg
- Vd [18]: 1.23 L/kg
- half-life [19]: 6.7 h
- MRT [20]: 8.1 h
- bioavailability [21]: 91%
- AUC(0-inf) [22]: 6.41 µM·h
- clearance [23]: 3 mL/min/kg
- Vd [24]: 1.14 L/kg
- half-life [25]: 5.5 h

From ChEMBL document CHEMBL5335870, “Discovery of Hepatitis B Virus Surface Antigen Suppressor GS-8873” (ACS Med Chem Lett, 2024)
